Experimental findings from US11498920B2, “4-(1H-imidazol-5-yl)-1H-pyrrolo[2, 3-b] pyridines for use in the treatment of leukaemias, lymphomas and solid tumors” (MASARYKOVA UNIVERZITA, priority 2018, dated 2022) are described below.

For orientation: viability means the share of living cells, or the viability signal relative to a control.

One assay deals with primary CLL cells. Kind of assay: Cytotoxicity, TMRE flow cytometry viability, primary CLL cells (Example II.1). Format: cell-based. Conditions: Homo sapiens, CLL cell, 6 hours, TMRE positive cells normalized to control, ratio to PF670462, <1 = higher cytotoxicity than PF670462, read-out: Viability of cells, Compound of formula I (100 μM), relative to PF670462 (100 μM), CLL primary cells. As for the experimental part: (§1) The leukemia and lymphoma-derived cell lines [MEC-1 cell line (derived from chronic lymphocytic leukemia—CLL), Nalm-16 (acute lymphocytic leukemia—ALL), K562 (chronic myeloid leukemia—CML), HL-60 (acute myeloid leukemia—AML), Maver-1 and Mino (mantle cell lymphoma—MCL), BL-41 (Burkitt lymphoma—BL), WSU-NHL (follicular lymphoma—FL), SUDHL (diffuse large B-cell lymphoma—DLBCL)], primary CLL cells and nonmalignant control primary cells were cultured in suspension in flasks under the following conditions: RPMI 1640 medium (Hyclone) supplemented with 10% fetal bovine serum (FBS, Gibco) and 1% penicillin/streptomycin (Life Technologies), 37° C., 5% CO2 and 95% relative humidity, with optimal culture cell density 5×10^6 cells/mL in case of primary cells and 0.5-1×10^6 cells/mL in case of cell lines. The adherent cell lines [A375 (derived from malignant melanoma), MDA-MB-231 and MCF-7 (breast cancer), MIA-PA-CA and PANC1 (pancreatic cancer), PC3 (prostate cancer), OVCAR4 (ovarian cancer) and HEPG2 (hepatocellular carcinoma)] were cultured on plates under the same conditions using RPMI1640 or DMEM medium (Gibco) according to instructions provided by the distributor (DSMZ/ATCC).
(§2) Cytotoxicity of compounds of formula I was tested in two models representative for leukemia (primary CLL cells) and lymphoma (Maver-1 cells). The primary CLL cells and Maver-1 cells (MCL-derived) were incubated with inhibitors at 100 μM concentration or corresponding amount of solvent (DMSO, Sigma Aldrich) as 0.1×10^6 cells/200 μl per well in a 96-well plate. Experiments were performed in technical duplicates. Viability of cells was assessed after 6 hours in case of primary CLL cells and after 24 hours in case of Maver-1 cells.
(§3) Apoptosis-induced reduction of mitochondrial potential is detected as lower TMRE fluorescence. […] Relative values are presented, showing ratio to the effect of PF670462 (as the closest prior art). Relative value <1 indicates a higher cytotoxicity than PF670462.
On the technique in general: Flow cytometry measures light scatter and fluorescence of single cells or particles in a stream.

For assay [1], the system named is Maver-1 cells (mantle cell lymphoma). Kind of assay: Cytotoxicity, TMRE flow cytometry viability, Maver-1 cells (Example II.1). Format: cell-based. Conditions: Homo sapiens, Maver1, 24 hours, TMRE positive cells normalized to control, ratio to PF670462, <1 = higher cytotoxicity than PF670462, read-out: Viability of cells, Compound of formula I (100 μM), relative to PF670462 (100 μM), Maver-1 cells (mantle cell lymphoma). The protocol:
as §1, §2, §3

For `Fc1ccc(-c2ncn(CCN3CCOCC3)c2-c2ccnc3[nH]ccc23)cc1` [Preparative Example 12, 4-(2-(4-(4-fluorophenyl)-5-(1H-pyrrolo[2,3-b]pyridin-4-yl)-1H-imidazol-1-yl)ethyl)morpholine], the viability at 100 µM with primary CLL cells was found to be 80%. Turning to `Fc1ccc(-c2ncn(C3CCOCC3)c2-c2ccnc3[nH]ccc23)cc1` [Preparative Example 13, 4-(4-(4-fluorophenyl)-1-(tetrahydro-2H-pyran-4-yl)-1H-imidazol-5-yl)-1H-pyrrolo[2,3-b]pyridine], the viability at 100 µM in the assay with primary CLL cells came to 47%. As for `CC(C)CCn1cnc(-c2ccc(F)cc2)c1-c1ccnc2[nH]ccc12` [Preparative Example 15, 4-(4-(4-fluorophenyl)-1-isopentyl-1H-imidazol-5-yl)-1H-pyrrolo[2,3-b]pyridine], the viability at 100 µM with primary CLL cells is 13%. For `Fc1ccc(-c2ncn(C3CCOC3)c2-c2ccnc3[nH]ccc23)cc1` (stereo not drawn) [Preparative Example 16, 4-(4-(4-fluorophenyl)-1-(tetrahydrofuran-3-yl)-1H-imidazol-5-yl)-1H-pyrrolo[2,3-b]pyridine], the viability at 100 µM in the assay on primary CLL cells was 67%.

In the case of `Fc1ccc(-c2ncn(C3CCC3)c2-c2ccnc3[nH]ccc23)cc1` [Preparative Example 17, 4-(1-cyclobutyl-4-(4-fluorophenyl)-1H-imidazol-5-yl)-1H-pyrrolo[2,3-b]pyridine], the viability at 100 µM in the assay with primary CLL cells was 52%. As for `Fc1ccc(-c2ncn(C3CCCC3)c2-c2ccnc3[nH]ccc23)cc1` [Preparative Example 18, 4-(1-cyclopentyl-4-(4-fluorophenyl)-1H-imidazol-5-yl)-1H-pyrrolo[2,3-b]pyridine], the viability at 100 µM in the assay with primary CLL cells amounted to 33%. As for `CC(C)OCCn1cnc(-c2ccc(F)cc2)c1-c1ccnc2[nH]ccc12` [Preparative Example 20, 4-(4-(4-fluorophenyl)-1-(2-isopropoxyethyl)-1H-imidazol-5-yl)-1H-pyrrolo[2,3-b]pyridine], the viability at 100 µM in the assay with primary CLL cells was 68%. `CN(C)CCn1cnc(-c2ccc(F)cc2)c1-c1ccnc2[nH]ccc12` [Preparative Example 21]: the viability at 100 µM with primary CLL cells was determined as 72%. Still for that read-out and setting: the figure for `Cn1cnc(-c2ccc(F)cc2)c1-c1ccnc2[nH]ccc12` [Preparative Example 25] is 81%; for `CO[C@H]1CC[C@H](n2cnc(-c3ccc(F)cc3)c2-c2ccnc3[nH]ccc23)CC1` [Preparative Example 28, 4-(4-(4-fluorophenyl)-1-(trans-4-methoxycyclohexyl)-1H-imidazol-5-yl)-1H-pyrrolo[2,3-b]pyridine] it is 67%; for `C=C(C)Cn1cnc(-c2ccc(F)cc2)c1-c1ccnc2[nH]ccc12` [Preparative Example 30, 4-(4-(4-fluorophenyl)-1-(2-methylallyl)-1H-imidazol-5-yl)-1H-pyrrolo[2,3-b]pyridine] it is 69%. The same measure, in the same setting: the same measure for `O[C@H]1CC[C@@H](n2cnc(-c3ccc(F)cc3)c2-c2ccnc3[nH]ccc23)CC1` [Preparative Example 31]: 78%. In the case of `O[C@H]1CC[C@H](n2cnc(-c3ccc(F)cc3)c2-c2ccnc3[nH]ccc23)CC1` [Preparative Example 32, trans-4-(4-(4-fluorophenyl)-5-(1H-pyrrolo[2,3-b]pyridin-4-yl)-1H-imidazol-1-yl)cyclohexan-1-ol], the viability at 100 µM with primary CLL cells came out at 67%. In the case of `c1cncc(-c2ncn(C3CCCCC3)c2-c2ccnc3[nH]ccc23)c1` [Preparative Example 44], the viability at 100 µM in the assay on primary CLL cells was determined as 81%. `CC(=O)N1CCC(n2cnc(-c3ccc(F)cc3)c2-c2ccnc3[nH]ccc23)CC1` [Preparative Example 68, 1-(4-(4-(4-fluorophenyl)-5-(1H-pyrrolo[2,3-b]pyridin-4-yl)-1H-imidazol-1-yl)piperidin-1-yl)ethan-1-one]: the viability at 100 µM in the assay with primary CLL cells is 81%. Consider `CC(=O)N[C@H]1CC[C@H](n2cnc(-c3ccc(F)cc3)c2-c2ccnc3[nH]ccc23)CC1` [Preparative Example 78, N-(trans-4-(4-(4-fluorophenyl)-5-(1H-pyrrolo[2,3-b]pyridin-4-yl)-1H-imidazol-1-yl)cyclohexyl)acetamide], for which the viability at 100 µM with primary CLL cells is 87%.

`CS(=O)(=O)N[C@H]1CC[C@H](n2cnc(-c3ccc(F)cc3)c2-c2ccnc3[nH]ccc23)CC1` [Preparative Example 79, N-(trans-4-(4-(4-fluorophenyl)-5-(1H-pyrrolo[2,3-b]pyridin-4-yl)-1H-imidazol-1-yl)cyclohexyl)methanesulfonamide]: in the assay with primary CLL cells, the viability at 100 µM came out at 86%. For the compound `Fc1ccc(-c2ncn(Cc3ccncc3)c2-c2ccnc3[nH]ccc23)cc1` [Preparative Example 83, 4-(4-(4-fluorophenyl)-1-(pyridin-4-ylmethyl)-1H-imidazol-5-yl)-1H-pyrrolo[2,3-b]pyridine], the viability at 100 µM in the assay on primary CLL cells stood at 78%.

Consider `Fc1ccc(-c2ncn(C34CCN(CC3)C4)c2-c2ccnc3[nH]ccc23)cc1` [Preparative Example 86, 4-(1-((1r,4r)-1-azabicyclo[2.2.1]heptan-4-yl)-4-(4-fluorophenyl)-1H-imidazol-5-yl)-1H-pyrrolo[2,3-b]pyridine], for which the viability at 100 µM in the assay on primary CLL cells was 76%. Take `OC1(Cn2cnc(-c3ccc(F)cc3)c2-c2ccnc3[nH]ccc23)CCC1` [Preparative Example 91, 1-((4-(4-fluorophenyl)-5-(1H-pyrrolo[2,3-b]pyridin-4-yl)-1H-imidazol-1-yl)methyl)cyclobutan-1-ol]: the viability at 100 µM in assay [1] came out at 69%.

As to `Cn1cc(Cn2cnc(-c3ccc(F)cc3)c2-c2ccnc3[nH]ccc23)cn1` [Preparative Example 93], the viability at 100 µM in assay [1] amounted to 75%. For the compound `CN1CCC(O)(Cn2cnc(-c3ccc(F)cc3)c2-c2ccnc3[nH]ccc23)CC1` [Preparative Example 119, 4-((4-(4-fluorophenyl)-5-(1H-pyrrolo[2,3-b]pyridin-4-yl)-1H-imidazol-1-yl)methyl)-1-methylpiperidin-4-ol], the viability at 100 µM in the assay on primary CLL cells was 87%. On to `Fc1ccc(-c2ncn(Cc3cscn3)c2-c2ccnc3[nH]ccc23)cc1` [Preparative Example 127, 4-((4-(4-fluorophenyl)-5-(1H-pyrrolo[2,3-b]pyridin-4-yl)-1H-imidazol-1-yl)methyl)thiazole], for which, in assay [1], the viability at 100 µM came to 72%. `Fc1ccc(-c2ncn(Cc3cnsc3)c2-c2ccnc3[nH]ccc23)cc1` [Preparative Example 130, 4-((4-(4-fluorophenyl)-5-(1H-pyrrolo[2,3-b]pyridin-4-yl)-1H-imidazol-1-yl)methyl)isothiazole]: in the assay with primary CLL cells, the viability at 100 µM is 89%. In the case of `Cn1ccc(Cn2cnc(-c3ccc(F)c(Cl)c3)c2-c2ccnc3[nH]ccc23)n1` [Preparative Example 143, 4-(4-(3-chloro-4-fluorophenyl)-1-((1-methyl-1H-pyrazol-3-yl)methyl)-1H-imidazol-5-yl)-1H-pyrrolo[2,3-b]pyridine], in the assay on primary CLL cells, the viability at 100 µM turned out to be 66%.

For `CC(c1cnn(C)c1)n1cnc(-c2ccc(F)cc2)c1-c1ccnc2[nH]ccc12` (stereo not drawn) [Preparative Example 145], the viability at 100 µM in assay [1] amounted to 42%.

`O[C@H]1CCC[C@H](n2cnc(-c3ccc(F)cc3)c2-c2ccnc3[nH]ccc23)C1` [Preparative Example 158, (1S,3S)-3-(4-(4-fluorophenyl)-5-(1H-pyrrolo[2,3-b]pyridin-4-yl)-1H-imidazol-1-yl)cyclohexan-1-ol]: the viability at 100 µM in the assay on primary CLL cells was 76%.
